Results reported in patent US11247972B2, “Compositions and methods for treating toxoplasmosis, cryptosporidiosis, and other apicomplexan protozoan related diseases” (University of Washington through its Center for …, priority 2010, dated 2022).

Key:
[1] = molecular target: PfCDPK4 (Plasmodium falciparum (isolate 3D7), UniProt Q8IBS5); assay: biochemical; conditions: read-out: PfCDPK4 (% inhibition @ 3 uM)
[2] = molecular target: PfCDPK1 (Plasmodium falciparum (isolate 3D7), UniProt P62344); assay: biochemical; conditions: read-out: PfCDPK1 (% inhibition @ 3 uM)

Row | SMILES | inhibition at 3 µM [1] | inhibition at 3 µM [2]
1 | Nc1ncnc2c1c(-c1ccc3ccccc3c1)nn2CC1CCNCC1 [Compound 147, 3-(naphthalen-2-yl)-1-(piperidin-4-ylmethyl)-1H-pyrazolo[3,4-d]pyrimidin-4-amine] | 99% | 100%
2 | Cc1cccc2[nH]c(-c3nc(C(C)(C)C)n4ccnc(N)c34)cc12 [Compound 83] | 93% | 96%
3 | CS(=O)(=O)N1CCC(CCn2nc(Cc3cccc4ccccc34)c3c(N)ncnc32)CC1 [Compound 5r, 1-(2-(1-(methylsulfonyl)piperidin-4-yl)ethyl)-3-(naphthalen-1-ylmethyl)-1H-pyrazolo[3,4-d]pyrimidin-4-amine] | 22% | 55%
4 | CC(C)n1nc(-c2ccc3cc(OCc4cccc(Cl)c4)ccc3c2)c2c(N)ncnc21 [Compound 47, 3-(6-(3-chlorobenzyloxy)naphthalen-2-yl)-1-isopropyl-1H-pyrazolo[3,4-d]pyrimidin-4-amine] | 51% | 91%
5 | CC(C)n1nc(-c2cccc(-c3ccccc3)c2)c2c(N)ncnc21 [Compound 7z, 3-(biphenyl-3-yl)-1-isopropyl-1H-pyrazolo[3,4-d]pyrimidin-4-amine] | 21% | 79%
6 | Nc1ncnc2c1c(-c1ccc(-c3ccccc3)cc1)nn2CC1CCNCC1 [Compound 100] | 68% | 101%
7 | Nc1ncnc2c1c(Cc1cccc3ccccc13)nn2CC1CCCCC1 [Compound 17, 1-(cyclohexylmethyl)-3-(naphthalen-1-ylmethyl)-1H-pyrazolo[3,4-d]pyrimidin-4-amine] | 5% | 44%
8 | NCCCCNC(=O)Nc1nc2ccc(C(=O)c3ccccc3)cc2[nH]1 [Compound 128] | 64% | 79%
9 | COC(=O)Nc1nc2ccc(C(O)c3ccccc3)cc2[nH]1 (stereo not shown) [Compound 82] | 4% | 56%
10 | CCOc1ccc2cc(-c3nn(C(C)C)c4ncnc(N)c34)ccc2c1 [Compound 7r, 3-(6-ethoxynaphthalen-2-yl)-1-isopropyl-1H-pyrazolo[3,4-d]pyrimidin-4-amine] | 99% | 94%
11 | Nc1ncnc2c1c(-c1ccccc1)nn2CC1CCNCC1 [Compound 145] | 63% | 93%
12 | CC(C)(C)n1nc(-c2ccc3oc(-c4ccccc4)nc3c2)c2c(N)ncnc21 [Compound 131] | 38% | 100%
13 | O=C(NCCCCO)Nc1nc2ccc(C(=O)c3ccccc3)cc2[nH]1 [Compound 127] | 46% | 68%
14 | COc1cc2ccccc2cc1-c1nn(C(C)C)c2ncnc(N)c12 [Compound 7s, 1-isopropyl-3-(3-methoxynaphthalen-2-yl)-1H-pyrazolo[3,4-d]pyrimidin-4-amine] | 20% | 53%
15 | CC(C)(C)c1nc(-c2ccc3ccccc3c2)c2c(N)nccn12 [Compound 84] | 99% | 101%
16 | O=C(c1ccccc1)c1ccc2nc(NC(=O)[C@@H]3CCCN3)[nH]c2c1 [Compound 107] | 52% | 65%

Row | SMILES | inhibition at 3 µM [1] | inhibition at 3 µM [2]
17 | Nc1ncnc2c1c(I)nn2CC1CCNCC1 [Compound 98] | 9% | 85%
18 | CC(C)COc1ccc2cc(-c3nn(CC4CCNCC4)c4ncnc(N)c34)ccc2c1 [Compound 44, 3-(6-isobutoxynaphthalen-2-yl)-1-(piperidin-4-ylmethyl)-1H-pyrazolo[3,4-d]pyrimidin-4-amine] | 97% | 100%
19 | CC(C)(C)n1nc(Cc2cccc3ccccc23)c2c(N)ncnc21 [Compound 5d, 1-tert-butyl-3-(naphthalen-1-ylmethyl)-1H-pyrazolo[3,4-d]pyrimidin-4-amine] | 86% | 76%
20 | CC(C)n1nc(-c2ccc3ccccc3c2)c2c(N)ncnc21 [Compound 7p, 1-isopropyl-3-(naphthalen-2-yl)-1H-pyrazolo[3,4-d]pyrimidin-4-amine] | 98% | 95%
21 | Nc1ncnc2c1c(Cc1cccc3ccccc13)nn2Cc1c[nH]cn1 [Compound 31, 1-((1H-imidazol-4-yl)methyl)-3-(naphthalen-1-ylmethyl)-1H-pyrazolo[3,4-d]pyrimidin-4-amine] | 40% | 51%
22 | Cc1ccc(C)c(COc2ccc3cc(-c4nn(C(C)C)c5ncnc(N)c45)ccc3c2)c1 [Compound 48, 3-(6-(2,5-dimethylbenzyloxy)naphthalen-2-yl)-1-isopropyl-1H-pyrazolo[3,4-d]pyrimidin-4-amine] | 10% | 84%
23 | CS(=O)(=O)N1CCC(Cn2nc(Cc3cccc4ccccc34)c3c(N)ncnc32)CC1 [Compound 5q, 1-((1-(methylsulfonyl)piperidin-4-yl)methyl)-3-(naphthalen-1-ylmethyl)-1H-pyrazolo[3,4-d]pyrimidin-4-amine] | 15% | 78%
24 | Nc1ncnc2c1c(-c1ccc3cc(O)ccc3c1)nn2CC1CCNCC1 [Compound 119] | 101% | 102%
25 | CCN1CCC(CCn2nc(Cc3cccc4ccccc34)c3c(N)ncnc32)CC1 [Compound 5o, 1-(2-(1-ethylpiperidin-4-yl)ethyl)-3-(naphthalen-1-ylmethyl)-1H-pyrazolo[3,4-d]pyrimidin-4-amine] | 37% | 71%
26 | CCCOc1ccc2cc(-c3nn(C(C)C)c4ncnc(N)c34)ccc2c1 [Compound 12, 1-isopropyl-3-(6-propoxynaphthalen-2-yl)-1H-pyrazolo[3,4-d]pyrimidin-4-amine] | 91% | 95%
27 | COc1ccc2cc(-c3nn(CC4CCNCC4)c4ncnc(N)c34)ccc2c1 [Compound 28, 3-(6-methoxynaphthalen-2-yl)-1-(piperidin-4-ylmethyl)-1H-pyrazolo[3,4-d]pyrimidin-4-amine] | 99% | 92%
28 | CCN1CCC(Cn2nc(Cc3cccc4ccccc34)c3c(N)ncnc32)CC1 [Compound 5n, 1-((1-ethylpiperidin-4-yl)methyl)-3-(naphthalen-1-ylmethyl)-1H-pyrazolo[3,4-d]pyrimidin-4-amine] | 27% | 49%
29 | CC(C)n1nc(-c2ccc3cc(OCc4ccncc4)ccc3c2)c2c(N)ncnc21 [Compound 55, 1-isopropyl-3-(6-(pyridin-4-ylmethoxy)naphthalen-2-yl)-1H-pyrazolo[3,4-d]pyrimidin-4-amine] | 94% | 100%
30 | O=C(CCCC1CCNCC1)Nc1nc2ccc(C(=O)c3ccccc3)cc2[nH]1 [Compound 115] | 84% | 71%
31 | CC(=O)N1CCC(CCn2nc(Cc3cccc4ccccc34)c3c(N)ncnc32)CC1 [Compound 5l, 1-(4-(2-(4-amino-3-(naphthalen-1-ylmethyl)-1H-pyrazolo[3,4-d]pyrimidin-1-yl)ethyl)piperidin-1-yl)ethanone] | 41% | 51%
32 | CC(C)(C)c1nc(-c2cnc3ccccc3c2)c2c(N)nccn12 [Compound 72, 3-tert-butyl-1-(quinolin-3-yl)imidazo[1,5-a]pyrazin-8-amine] | 91% | 94%
